Test system: CD34+ cells
Test: Ex vivo expansion of purified CD34+ cells in liquid culture: cell enumeration and FACS of subsets
Assay type: cell-based, human
Conditions: for density of CD34+CD38− cells, fold higher than untreated control / density of CD34+ Lin− progenitor cells, fold higher than untreated control: with IL-3; for density of CD34+CD38− cells, fold higher than untreated control: FIG. 6b; for density of CD34+ Lin− progenitor cells, fold higher than untreated control: FIG. 6c
Description: Sample collection and processing: Samples were obtained from umbilical human cord blood and processed within 12 hours. The blood cells were mixed with 3% Gelatin (Gigma, St. Louis, Mo.) and allowed to sediment for 30 minutes to remove most red blood cells. The leukocyte-rich fraction was harvested, layered on Ficoll-Hypaque (density 1.077 gram/ml; Sigma) and centrifuged at 400 g for 30 minutes at room temperature. The mononuclear cells in the interface layer were then collected, washed three times in phosphate-buffered saline (PBS; Biological Industries), and re-suspended in PBS solution which contains 1% bovine serum albumin (BSA; Sigma). The cells were then incubated at 4° C. for 30 minutes with murine monoclonal anti CD34^+ antibody (0.5 μg/10^6 mononuclear cells) and were thereafter isolated using two cycles of immuno-magnetic separation using the miniMACS CD34^+ Progenitor Cell Isolation Kit (Miltenyi-Biotec, Auburn, Calif.) according to the manufacturer's recommendations. The purity of the CD34^+ cells obtained ranged between 95% and 98%, based on Flow Cytometry evaluation (see below). Ex vivo expansion of progenitor cells: Enriched CD34^+ cell fractions were cultures in 24-well Costar Cell Culture Clusters (Corning Inc., Corning, N.Y.) or in Culture Bags (American Fluoroseal Corp.) with alpha minimal essential medium supplemented with 10% fetal bovine serum (FBS, Biological Industries), at about 1-3×10^4 cells/ml medium. The media were further supplemented with the following human recombinant cytokines (all obtained from Perpo Tech, Inc., Rocky Hill, N.J.): Thrombopoietin (TPO), 50 ng/ml; interleukin 6 (IL-6), 50 ng/ml; FLT-3 ligand, 50 ng/ml; and IL-3, 20 ng/ml. The cultures were incubated at 37° C. in an atmosphere of 5% CO2 in air with extra humidity. At weekly intervals cell cultures were semi-depopulated and supplemented with fresh medium containing the cytokines. Following different incubation periods, the cells were harvested, stained with trypan blue and enumerated. The total cell counts, numbers of CD34^+ cells and subsets thereof, and the number of colony-forming cells (CFU) are presented herein as cumulative numbers, with the assumption that the cultures had not been passaged, namely, the numbers of cells per ml were multiplied by the number of passages performed. Surface antigen analysis: At different time intervals, the cultured cells were harvested, washed with a PBS solution containing 1% BSA and 0.1% sodium azide (Sigma), and stained, at 4° C. for 60 minutes, with FITC-labeled anti CD45 monoclonal antibody and either PE-labeled anti CD34 (HPCA-2) monoclonal or PE-labeled control mouse Ig (all from Immunoquality Products, the Netherlands). The cells were then washed with the same PBS solution and were analyzed by a flow cytometer, as described hereinafter. Flow cytometry analysis: Cells were analyzed and sorted using FACS caliber flow cytometer (Becton-Dickinson, Immunofluorometry systems, Mountain View, Calif.). Cells were passed at a rate of 1,000 cells/second through a 70 μm nozzle, using a saline sheath fluid. A 488 nm argon laser beam at 250 mW served as the light source for excitation. Fluorescence emission of ten thousand cells was measured using a logarithmic amplification and analyzed using CellQuest software. Determination of the density of stem and progenitor subset populations following expansion: Following an incubation period, the CD34^+ cells were re-selected using miniMACS Miltenyi kit. The purity of the positive fraction of selected CD34^+ cells was confirmed by FACS analysis as well as by cell morphology analysis. The density of CD34^+ cells, in proportion (percentage) to total cells, was determined directly via FACS analysis. The densities of CD34^+ subset populations were determined from the purified CD34^+ fraction. Re-selected CD34^+ cells were stained with lineage specific antigens followed by FACS analysis to determine the percentage of the subset populations within the total number of CD34^+ cells. […]

In the case of NCCNCCNCCNCCN [TEPA chelator, tetraethylenepentamine], the “density of CD34+ CD38− subset cells vs untreated or TEPA-Cu treatment” value (three weeks, 5 μM, FIG. 12b) is reported as “substantially increased”, the “density of CD34+ Lin− subset cells vs untreated or TEPA-Cu treatment” value (three weeks, 5 μM, FIG. 12c) is reported as “substantially increased” and the “density of CD34+CD38− cells vs untreated or TEPA-Cu treatment” value (two and three weeks, 5 μM, FIG. 13b) is reported as “substantially higher”. For the same compound, the “density of CD34+ Lin− cells vs untreated or TEPA-Cu treatment” value (two and three weeks, 5 μM, FIG. 13c) was “substantially higher” and the “density of CD34+ cells vs untreated control” value (two weeks culture, 5 μM, FIGS. 11a-b) was “slightly decreased”.
With NCCNCCNCCNCCN.[Cl-].[Cl-].[Cu+2] [TEPA-Cu chelate, tetraethylenepentamine-copper chelate] the “density of CD34+CD38− cells, fold higher than untreated control” value (20 μM, two weeks) was 5 fold, the “density of CD34+ Lin− progenitor cells, fold higher than untreated control” value (20 μM, two weeks) was 3 fold and the “density of CD34+CD38− cells, fold higher than untreated control” value (40 μM, two weeks) was 15 fold. The “density of CD34+ Lin− progenitor cells, fold higher than untreated control” value (40 μM, two weeks) was 5 fold, the “density of CD34+CD38− cells, fold higher than untreated control” value (50 μM, two weeks) was 15 fold and the “density of CD34+ Lin− progenitor cells, fold higher than untreated control” value (50 μM, two weeks) was 4 fold. For the same compound, the “number of CD34+ cells vs untreated (cytokines only) culture” value (2 and 3 weeks, 30 μM or 40 μM, FIG. 5a) was “remained almost unchanged”, the “number of CD34+CD38− cells, fold higher than untreated control” value (3 weeks, 30 μM or 40 μM, FIG. 5b) was 6-7 fold and the “number of CD34+ Lin− cells, fold higher than untreated control” value (3 weeks, 30 μM or 40 μM, FIG. 5c) was 4-6.5 fold. The “density of CD34+ stem cells, expansion” value (three weeks, 40 μM, TPO, FLT-3, IL-6, SCF, untreated 40 fold, FIG. 4a) was 50 fold, the “density of CD34+CD38− progenitor cells, expansion” value (three weeks, 40 μM, untreated 5 fold, FIG. 4b) was 250 fold and the “density of CD34+ Lin− progenitor cells, expansion” value (three weeks, 40 μM, untreated 10 fold, FIG. 4c) was 110 fold. The “more total cells as compared with the untreated control” value (three weeks, 50 μM, FIG. 8a) was “ca. 25%”, the “density of CD34+ CD38− subset cells vs untreated control” value (three weeks, 50 μM, FIG. 8c) was “substantially higher” and the “density of CD34+ Lin− subset cells vs untreated control” value (three weeks, 50 μM, FIG. 8d) was “substantially higher”. For the same compound, the “CD34+ cell expansion vs untreated control” value (two weeks culture, 40 μM, FIGS. 11a-b) was “did not significantly affect”, the “density of CD34+CD61+ progenitor cells, fold vs untreated control” value (two weeks, 40 μM, FIG. 7a) was “ca. 2 fold” and the “density of CD34+CD41+ progenitor cells, fold vs untreated control” value (two weeks, 40 μM, FIG. 7b) was roughly 3 fold. The “density of CD34+ stem cells, fold higher than untreated control” value (two weeks, 20, 40 and 50 μM, TPO, FLT-3, IL-6, IL-3, FIG. 6a) was “ca. 1.5 fold”.

From patent US7655225B2, “Methods of expanding stem and progenitor cells and expanded cell populations obtained thereby” (Gamida Cell, Ltd., priority 2002, dated 2010)
